Measured values: PubChem BioAssay AID330 (DTP/NCI, 2004)
Values joined by “and” are separate entries in the source; they are usually repeats but may differ in a detail not shown here. Equal values may be shown once. Inconclusive results and toxic doses are left out.

Test system: P388 leukemia ip, CD2F1 mice, survival T/C
Experiment: NCI In Vivo Anticancer Drug Screen. Data for tumor model P388 Leukemia (intraperitoneal) in CD2F1 (CDF1) mice
Conditions: endpoint: median survival time, higher = longer survival
Summary of the method: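 Mice carrying the transplanted tumor received test compound or vehicle. Survival was recorded in each group, and the value is the treated-group measurement divided by that of the vehicle-treated control group.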

[1] = dose: 50.0 mg/kg/injection, schedule: Q01DX005 (ip), vehicle: saline with Tween-80
[2] = dose: 50.0 mg/kg/injection, schedule: Q01DX009 (ip), vehicle: saline with Tween-80
[3] = dose: 50.0 mg/kg/injection, schedule: Q01DX005 (ip), vehicle: Klucel (hydroxypropylcellulose) (HPC)
[4] = dose: 100.0 mg/kg/injection, schedule: Q01DX005 (ip), vehicle: Klucel (hydroxypropylcellulose) (HPC)
[5] = dose: 200.0 mg/kg/injection, schedule: Q01DX005 (ip), vehicle: Klucel (hydroxypropylcellulose) (HPC)
[6] = dose: 100.0 mg/kg/injection, schedule: Q01DX005 (ip), vehicle: saline with Tween-80
[7] = dose: 200.0 mg/kg/injection, schedule: Q01DX005 (ip), vehicle: saline with Tween-80
[8] = dose: 100.0 mg/kg/injection, schedule: Q01DX009 (ip), vehicle: saline with Tween-80
[9] = dose: 200.0 mg/kg/injection, schedule: Q01DX009 (ip), vehicle: saline with Tween-80
[10] = dose: 60.0 mg/kg/injection, schedule: Q01DX005 (ip), vehicle: saline with Tween-80
[11] = dose: 120.0 mg/kg/injection, schedule: Q01DX005 (ip), vehicle: saline with Tween-80
[12] = dose: 240.0 mg/kg/injection, schedule: Q01DX005 (ip), vehicle: saline with Tween-80
[13] = dose: 400.0 mg/kg/injection, schedule: Q01DX009 (ip), vehicle: saline with Tween-80
[14] = dose: 50.0 mg/kg/injection, schedule: Q01DX009 (ip), vehicle: Klucel (hydroxypropylcellulose) (HPC)
[15] = dose: 100.0 mg/kg/injection, schedule: Q01DX009 (ip), vehicle: Klucel (hydroxypropylcellulose) (HPC)
[16] = dose: 200.0 mg/kg/injection, schedule: Q01DX009 (ip), vehicle: Klucel (hydroxypropylcellulose) (HPC)
[17] = dose: 100.0 mg/kg/injection, schedule: Q01DX001 (ip), vehicle: Klucel (hydroxypropylcellulose) (HPC)
[18] = dose: 100.0 mg/kg/injection, schedule: Q04DX002 (ip), vehicle: Klucel (hydroxypropylcellulose) (HPC)
[19] = dose: 200.0 mg/kg/injection, schedule: Q04DX002 (ip), vehicle: Klucel (hydroxypropylcellulose) (HPC)
[20] = dose: 400.0 mg/kg/injection, schedule: Q04DX002 (ip), vehicle: Klucel (hydroxypropylcellulose) (HPC)

Compound: CCc1ccc2c(-c3ccccc3)c3c(-c4ccccc4)c4ccccc4c(-c4ccccc4)c3c(-c3ccccc3)c2c1
- T/C (dose: 12.5 mg/kg/injection, schedule: Q01DX005 (ip), vehicle: saline with Tween-80): 99 % of control
- T/C (dose: 25.0 mg/kg/injection, schedule: Q01DX005 (ip), vehicle: saline with Tween-80): 91 % of control
- T/C [1]: 98 % of control and 88 % of control

Compound: O=C(NCN1CCOCC1)c1ccccc1O
- T/C (dose: 100.0 mg/kg/injection, schedule: Q04DX002 (ip), vehicle: saline with Tween-80): 98 % of control
- T/C (dose: 200.0 mg/kg/injection, schedule: Q04DX002 (ip), vehicle: saline with Tween-80): 104 % of control

Compound: COc1c(Br)cc(Br)cc1/C=C/[N+](=O)[O-]
- T/C [2]: 123 % of control

Compound: C/C(=N\N(C)/C=N/S(C)(=O)=O)c1ccccc1
- T/C [3]: 98 % of control
- T/C [4]: 95 % of control
- T/C [5]: 104 % of control

Compound: CC(SC(C)C(=O)N/N=C/c1c[nH]c2ccccc12)C(=O)N/N=C\c1c[nH]c2ccccc12 (stereo not given)
- T/C [1]: 92 % of control
- T/C [6]: 93 % of control
- T/C [7]: 93 % of control

Compound: COC1/C=C/OC2(C)Oc3c(C)c(O)c4c(c3C2=O)C(=O)C=C(NC(=O)/C(C)=C\C=C\C(C)C2OC(C)(C)OC(C2C)C(C)C(OC(C)=O)C1C)C4=O (stereo not given)
- T/C [2]: 106 % of control
- T/C [8]: 113 % of control
- T/C [9]: 117 % of control

Compound: CC(=O)O[C@H]1CC[C@]2(C)C3CC[C@]4(C)C([C@H](C)CCCC(C)C)CCC4[C@]3(C#N)n3c(=O)n(-c4ccccc4)c(=O)n3[C@]2(C#N)C1 (stereo not given in full)
- T/C [10]: 96 % of control
- T/C [11]: 93 % of control
- T/C [12]: 91 % of control

Compound: Cc1o[nH]c(=O)c1C
- T/C [8]: 100 % of control
- T/C [9]: 100 % of control
- T/C [13]: 100 % of control

Compound: OCCNC(=S)Nc1ccccc1
- T/C (dose: 7.5 mg/kg/injection, schedule: Q01DX009 (ip), vehicle: saline with Tween-80): 104 % of control
- T/C (dose: 15.0 mg/kg/injection, schedule: Q01DX009 (ip), vehicle: saline with Tween-80): 100 % of control

Compound: O=C(/C=N/O)Nc1ccccc1
- T/C (dose: 12.5 mg/kg/injection, schedule: Q01DX009 (ip), vehicle: Klucel (hydroxypropylcellulose) (HPC)): 100 % of control and 107 % of control
- T/C (dose: 25.0 mg/kg/injection, schedule: Q01DX009 (ip), vehicle: Klucel (hydroxypropylcellulose) (HPC)): 99 % of control and 100 % of control and 106 % of control
- T/C [14]: 103 % of control and 92 % of control
- T/C [15]: 101 % of control and 109 % of control and 114 % of control

Compound: O=C1CNC(=O)N1CN1CCOCC1
- T/C (dose: 25.0 mg/kg/injection, schedule: Q01DX005 (ip), vehicle: Klucel (hydroxypropylcellulose) (HPC)): 107 % of control
- T/C [3]: 107 % of control and 111 % of control
- T/C [4]: 118 % of control

Compound: CN1OC(CS(=O)(=O)c2ccccc2)(S(=O)(=O)c2ccccc2)CC1c1ccccc1 (stereo not given)
- T/C [3]: 103 % of control
- T/C [4]: 101 % of control
- T/C [5]: 101 % of control

Compound: O=CNCC(=O)O
- T/C (dose: 50.0 mg/kg/injection, schedule: Q01DX009 (ip), vehicle: saline): 101 % of control
- T/C (dose: 100.0 mg/kg/injection, schedule: Q01DX009 (ip), vehicle: saline): 97 % of control
- T/C (dose: 200.0 mg/kg/injection, schedule: Q01DX009 (ip), vehicle: saline): 99 % of control

Compound: Cn1cnc2n[nH]nc2c1=O
- T/C [14]: 105 % of control
- T/C [15]: 95 % of control
- T/C [16]: 100 % of control

Compound: COc1ccc([N+](=O)[O-])c(C#N)c1
- T/C (dose: 100.0 mg/kg/injection, schedule: Q04DX003 (ip), vehicle: saline): 98 % of control
- T/C (dose: 200.0 mg/kg/injection, schedule: Q04DX003 (ip), vehicle: saline): 93 % of control
- T/C (dose: 400.0 mg/kg/injection, schedule: Q04DX003 (ip), vehicle: saline): 100 % of control

Compound: C[n+]1ccc(Nc2ccc(NC(=O)c3ccc(Nc4cc[n+](C)c5ccc([N+](=O)[O-])cc45)cc3)cc2)cc1
- T/C (dose: 2.0 mg/kg/injection, schedule: Q01DX009 (ip), vehicle: saline): 164 % of control
- T/C (dose: 4.0 mg/kg/injection, schedule: Q01DX009 (ip), vehicle: saline): 158 % of control and 178 % of control
- T/C (dose: 8.0 mg/kg/injection, schedule: Q01DX009 (ip), vehicle: saline): 177 % of control and 195 % of control
- T/C (dose: 16.0 mg/kg/injection, schedule: Q01DX009 (ip), vehicle: saline): 226 % of control and 257 % of control
- T/C (dose: 32.0 mg/kg/injection, schedule: Q01DX009 (ip), vehicle: saline): 281 % of control and 288 % of control
- T/C (dose: 64.0 mg/kg/injection, schedule: Q01DX009 (ip), vehicle: saline): 121 % of control

Compound: O=C1CCCC2OC3CCCC(=O)C3C(c3ccccc3)C12 (stereo not given)
- T/C (dose: 25.0 mg/kg/injection, schedule: Q01DX001 (ip), vehicle: Klucel (hydroxypropylcellulose) (HPC)): 96 % of control
- T/C (dose: 50.0 mg/kg/injection, schedule: Q01DX001 (ip), vehicle: Klucel (hydroxypropylcellulose) (HPC)): 100 % of control
- T/C [17]: 90 % of control

Compound: C=C[CH2][Sn]([c]1ccccc1)([c]1ccccc1)[c]1ccccc1
- T/C (dose: 6.25 mg/kg/injection, schedule: Q04DX003 (ip), vehicle: saline with Tween-80): 92 % of control
- T/C (dose: 12.5 mg/kg/injection, schedule: Q04DX003 (ip), vehicle: saline with Tween-80): 100 % of control
- T/C (dose: 25.0 mg/kg/injection, schedule: Q04DX003 (ip), vehicle: saline with Tween-80): 101 % of control

Compound: COC1OC(C(C)Br)C2OC(C)(C)OC12 (stereo not given)
- T/C [10]: 105 % of control
- T/C [11]: 102 % of control
- T/C [12]: 107 % of control

Compound: CC1(C)CC2(OC2c2ccccc2[N+](=O)[O-])C(=O)c2ccccc21 (stereo not given)
- T/C [8]: 100 % of control
- T/C [9]: 100 % of control
- T/C [13]: 100 % of control

Compound: NC(=S)n1nc(-c2ccccc2)c(N=Nc2ccccc2[N+](=O)[O-])c1-c1ccccc1
- T/C [18]: 99 % of control
- T/C [19]: 110 % of control
- T/C [20]: 105 % of control

Compound: OCC#C[C@@H]1CC[C@H]1C#CCO
- T/C [3]: 100 % of control
- T/C [4]: 103 % of control
- T/C [5]: 103 % of control

Compound: Cc1ccc(OP(=O)(Oc2ccc(C)cc2)Oc2ccc(C)cc2)cc1.Cc1ccc(OP(=O)(Oc2ccc(C)cc2)Oc2ccc(C)cc2)cc1.[Cl][Cu][Cl]
- T/C (dose: 12.5 mg/kg/injection, schedule: Q04DX003 (ip), vehicle: Klucel (hydroxypropylcellulose) (HPC)): 99 % of control
- T/C (dose: 25.0 mg/kg/injection, schedule: Q04DX003 (ip), vehicle: Klucel (hydroxypropylcellulose) (HPC)): 96 % of control
- T/C (dose: 50.0 mg/kg/injection, schedule: Q04DX003 (ip), vehicle: Klucel (hydroxypropylcellulose) (HPC)): 99 % of control

Compound: C=C(c1ccc(Cl)cc1)c1ccc(OC)c(OC)c1
- T/C [1]: 94 % of control
- T/C [6]: 99 % of control
- T/C [7]: 97 % of control

Compound: CCSc1nc2ccc(NC(=O)/C=C/C(=O)O)cc2s1
- T/C [14]: 103 % of control
- T/C [15]: 90 % of control
- T/C [16]: 95 % of control

Compound: CNc1c(C(N)=O)nnn1Cc1ccc(OC)cc1
- T/C [18]: 100 % of control
- T/C [19]: 100 % of control
- T/C [20]: 103 % of control

Compound: CC(C)CC1=C(C(=O)c2ccoc2)CC(C)C1 (stereo not given)
- T/C (dose: 3.7 mg/kg/injection, schedule: Q01DX005 (ip), vehicle: Klucel (hydroxypropylcellulose) (HPC)): 99 % of control
- T/C (dose: 7.5 mg/kg/injection, schedule: Q01DX005 (ip), vehicle: Klucel (hydroxypropylcellulose) (HPC)): 95 % of control
- T/C (dose: 15.0 mg/kg/injection, schedule: Q01DX005 (ip), vehicle: Klucel (hydroxypropylcellulose) (HPC)): 95 % of control

Compound: COc1ccccc1C(O)(C(F)(F)F)C(F)(F)F
- T/C [14]: 101 % of control
- T/C [15]: 98 % of control
- T/C [16]: 95 % of control

Compound: CS(=O)(=O)Nc1cc(C(O)CNC2CC2)ccc1O (stereo not given)
- T/C (dose: 0.37 mg/kg/injection, schedule: Q01DX001 (ip), vehicle: saline): 96 % of control
- T/C (dose: 0.75 mg/kg/injection, schedule: Q01DX001 (ip), vehicle: saline): 98 % of control
- T/C (dose: 1.5 mg/kg/injection, schedule: Q01DX001 (ip), vehicle: saline): 100 % of control and 95 % of control

Compound: OC1(c2ccc(Cl)cc2)c2ccccc2COc2ccccc21 (stereo not given)
- T/C [17]: 102 % of control
- T/C (dose: 200.0 mg/kg/injection, schedule: Q01DX001 (ip), vehicle: Klucel (hydroxypropylcellulose) (HPC)): 100 % of control
- T/C (dose: 400.0 mg/kg/injection, schedule: Q01DX001 (ip), vehicle: Klucel (hydroxypropylcellulose) (HPC)): 100 % of control
